In PMC7902330, “Pharmacokinetic study of traditional Japanese Kampo medicine shimotsuto used to treat gynecological diseases in rats” (Journal of Natural Medicines, 2021):
Read-outs that look alike come from different tables or passages of the source.

Tests used:
[1] = Pharmacokinetics of ingredients in rat plasma after oral administration of shimotsuto (targeted LC–MS/MS); type: in vivo
Source text: The plasma levels of nine ingredients were quantified using quantitative (targeted) analysis. Among them, seven ingredients (catalpol, paeoniflorin, albiflorin, senkyunolide A, butylphthalide, ferulic acid, and ligustilide) are candidate active ingredients in shimotsuto (Table 1). Two ingredients (bergapten and 8-debenzoylpaeoniflorin) are shimotsuto ingredients which were detected and identified in shimotsuto-treated rat plasma using nontargeted LC–HRMS analysis. The nine ingredients were quantified by collecting plasma samples at 0–24 h after shimotsuto administration, pretreating with the following procedures, and then analyzing by targeted LC–MS/MS using selected reaction-monitoring mode. The LC–MS/MS system was composed of a triple quadruple MS (TripleQuad6500; SCIEX, Framingham, MA, USA) and an Agilent 1290 Infinity LC system (Agilent Technologies, Santa Clara, CA, USA). For highly sensitive and selective quantitative (targeted) analysis of each compound, we preliminarily examined optimal pretreatment and analytical LC–MS/MS methods (e.g., MS parameters and LC conditions).
For quantification of catalpol, paeoniflorin, albiflorin, ferulic acid, and senkyunolide A in plasma, 100 µL of plasma sample was mixed with 20 µL of methanol (or working solution) and 20 µL of internal standard (niflumic acid or swertiamarin) and pretreated by deproteinization using 500 µL of acetonitrile. […] Finally, the dried residue was dissolved in 60 µL of the specific HPLC mobile phase used for analysis and then a 10 μL aliquot was injected into the LC–MS/MS system.
For quantification of ligustilide and butylphthalide in plasma, 200 µL of plasma sample was mixed with 40 µL of methanol (or working solution) and 40 µL of internal standard (imperatorin) and centrifuged at 15000×g for 10 min at 4 °C, the whole volume of supernatant was collected and subsequently pretreated by solid-phase extraction using Oasis HLB Extraction Cartridge (Waters, Milford, MA, USA). The acetonitrile elutes were collected and then dried under a steam of nitrogen gas. Finally, the dried residue was dissolved in 70 µL of the specific HPLC mobile phase and injected 20 µL into the LC–MS/MS system.
For quantification of bergapten in plasma, 100 µL of plasma sample was mixed with 20 µL of methanol (or working solution) and 20 µL of internal standard (niflumic acid) and pretreated by solid-phase extraction using an Oasis HLB 96-well µElution plate. Next, the mixied elutes of acetonitrile and isopropyl alcohol (1:1, v/v) were collected and then dried under a steam of nitrogen gas. Finally, the dried residue was dissolved in 60 µL of the specific HPLC mobile phase and injected 10 µL into the LC–MS/MS system.
For quantification of 8-debenzoylpaeoniflorin in plasma, 100 µL of plasma sample was mixed with 20 µL of methanol (or working solution) and 20 µL of internal standard (niflumic acid) and pretreated by liquid–liquid extraction using 500 µL of ethyl acetate. […] The dried residue was dissolved in 60 µL of the specific HPLC mobile phase and injected 10 µL into the LC–MS/MS system.
In addition, pharmacokinetic parameters of the shimotsuto ingredients detected in the plasma, such as the maximum concentration (Cmax) and area under the plasma level–time curve (AUC0−last), were calculated by noncompartmental moment analysis using Phoenix WinNonlin software (Certara L.P., St. Louis, MO, USA).

human TRPA1 = target: T1, human TRPA1 (Homo sapiens, UniProt O75762); assay: Ca2+ influx assay for TRP channel agonistic activity in T-REx-293 cells; type: cell-based; details: for activation at 10 µM: T-REx-293, 10 µmol/L test ingredient, positive control 20 µmol/L allyl isothiocyanate, read-out: % Activation compared to positive control, TRPA1
T1 construct: The full length of each of human transient receptor potential ankyrin 1 (TRPA1); expressed in transfected cells
Source text: (§1) The full length of each of human transient receptor potential ankyrin 1 (TRPA1), transient receptor potential cation channel subfamily V member 1 (TRPV1), transient receptor potential cation channel subfamily V member 4 (TRPV4), and transient receptor potential cation channel subfamily M member 8 (TRPM8) coding region was introduced into a pcDNA4/TO vector (Thermo Fisher Scientific, Waltham, MA, USA) and transfected into T-REx-293 cells (Thermo Fisher Scientific) to obtain stable cell lines expressing human TRPA1, TRPV1, TRPV4, and TRPM8. Next, the cells were cultured in Dulbecco’s Modified Eagle Medium containing 10% fetal bovine serum (FBS), 4 mM L-glutamine, and penicillin/streptomycin.
(§2) First, cells were suspended in culture medium with 1 µg/mL of tetracycline and seeded on a poly-D-lysine-coated 96-well plate at a density of 2.5 × 10^4 cells/well overnight. Next, the cells were used for Ca^2+ influx assay, as described previously with minor modifications, using a FLIPR Calcium 5 Assay Kit (Molecular Devices, San Jose, CA, USA). Briefly, cells were incubated in 80 µL of a Ca^2+-chelating dye dissolved in assay buffer at pH 7.4 (Hanks’ Balanced Salt Solution containing 20 mmol/L of 4-(2-hydroxyethyl)-1-piperazineethanesulfonic acid [HEPES]) for 30 min at room temperature. Next, the plates were assayed in a FlexStation 3 microplate reader (Molecular Devices). The fluorescence intensity was traced entirely for 80 s, and the fluorescence baseline was measured 20 s before application of 20 µL of the test compound (final concentration = 10 µmol/L). The response was expressed as percentage activation as follows:
(§3) Relative fluorescence units (RFU) (% activation) = ([RFUmax − RFUbaseline]/RFUbaseline) × 100
(§4) The activity of each test compound against TRPA1, TRPV1, TRPV4, and TRPM8 was represented as the relative enhancement of the Ca^2+ influx of each positive control as follows: 20 µmol/L of allyl isothiocyanate (TRPA1 agonist), 2 µmol/L of capsaicin (TRPV1 agonist), 4 µmol/L of GSK1016790A (TRPV4 agonist), and 20 µmol/L of icilin (TRPM8 agonist). The dose–response curve was fitted to the sigmoidal dose–response equation (Top: maximum response of each compound), and EC50 was calculated using GraphPad prism 7 software (GraphPad, San Diego, CA, USA).
(§5) Calcium ion influx into TRPA1-, TRPV1-, TRPV4-, or TRPM8-expressing T-REx-293 cells was measured to evaluate the agonistic effect of shimotsuto ingredients on TRP channels. The action of 10 µmol/L of each test ingredient was represented as the relative enhancement of the Ca^2+ influx of each positive control, indicated as follows: 20 µmol/L each of allyl isothiocyanate (TRPA1 agonist), 2 µmol/L capsaicin (TRPV1 agonist), 4 µmol/L GSK1016790A (TRPV4 agonist), and 20 µmol/L icilin (TRPM8 agonist). Dose–response tests of shimotsuto ingredients against TRPA1 were performed to calculate EC50.

human TRPM8 = target: T2, human TRPM8 (Homo sapiens, UniProt Q7Z2W7); assay: as above; type: cell-based; details: 10 µmol/L test ingredient, positive control 20 µmol/L icilin, read-out: % Activation compared to positive control, TRPM8
T2 construct: The full length of each of human transient receptor potential ankyrin 1 (TRPA1); expressed in transfected cells
Source text: as §1, §2, §3, §4, §5

human TRPV1 = target: T3, human TRPV1 (Homo sapiens, UniProt Q8NER1); assay: as above; type: cell-based; details: 10 µmol/L test ingredient, positive control 2 µmol/L capsaicin, read-out: % Activation compared to positive control, TRPV1
T3 construct: The full length of each of human transient receptor potential ankyrin 1 (TRPA1), transient receptor potential cation channel subfamily V member 1 (TRPV1); expressed in transfected cells
Source text: as §1, §2, §3, §4, §5

human TRPV4 = target: T4, human TRPV4 (Homo sapiens, UniProt Q9HBA0); assay: as above; type: cell-based; details: 10 µmol/L test ingredient, positive control 4 µmol/L GSK1016790A, read-out: % Activation compared to positive control, TRPV4
T4 construct: The full length of each of human transient receptor potential ankyrin 1 (TRPA1); expressed in transfected cells
Source text: as §1, §2, §3, §4, §5

blood viscosity = tested on: blood viscosity; design: method as in PMID 28299338; details: rat model; cited from earlier work
[2] = Plasma levels of catalpol in humans after goshajinkigan administration (unpublished data); type: in vivo, human; details: after goshajinkigan (including Rehmanniae Radix) administration
[3] = design: method as in PMID 31514313; details: ref 18; cited from earlier work
[4] = cited from earlier work
[5] = tested on: transient receptor potential ankyrin 1 (TRPA1); design: method as in PMID 21894528; details: ref 15; cited from earlier work
[6] = design: method as in PMID 8932691; details: cited from earlier work

T4 sequence (Q9HBA0 whole entry): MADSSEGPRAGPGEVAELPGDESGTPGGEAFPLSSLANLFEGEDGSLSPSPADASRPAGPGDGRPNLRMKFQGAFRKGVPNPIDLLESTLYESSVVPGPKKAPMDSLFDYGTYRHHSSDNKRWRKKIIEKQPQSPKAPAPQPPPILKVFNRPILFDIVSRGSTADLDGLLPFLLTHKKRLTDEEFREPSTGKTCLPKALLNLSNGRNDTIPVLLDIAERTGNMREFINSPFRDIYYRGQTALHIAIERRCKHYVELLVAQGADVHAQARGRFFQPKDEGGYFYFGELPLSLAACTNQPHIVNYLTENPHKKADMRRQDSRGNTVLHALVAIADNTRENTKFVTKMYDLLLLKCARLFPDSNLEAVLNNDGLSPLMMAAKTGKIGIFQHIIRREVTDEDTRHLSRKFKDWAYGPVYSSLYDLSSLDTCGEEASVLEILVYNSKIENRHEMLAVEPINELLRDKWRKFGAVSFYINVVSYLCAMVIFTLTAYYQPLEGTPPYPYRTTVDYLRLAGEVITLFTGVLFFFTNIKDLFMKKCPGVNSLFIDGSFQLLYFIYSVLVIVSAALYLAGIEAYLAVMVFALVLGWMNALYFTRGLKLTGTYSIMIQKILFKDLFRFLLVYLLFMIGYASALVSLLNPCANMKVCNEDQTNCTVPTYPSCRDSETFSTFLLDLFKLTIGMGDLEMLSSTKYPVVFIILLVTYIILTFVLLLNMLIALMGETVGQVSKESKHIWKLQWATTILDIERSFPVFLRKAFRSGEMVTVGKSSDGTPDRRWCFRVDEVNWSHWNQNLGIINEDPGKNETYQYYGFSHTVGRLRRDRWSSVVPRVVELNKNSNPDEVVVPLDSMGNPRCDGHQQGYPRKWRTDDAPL
T3 sequence (Q8NER1 whole entry): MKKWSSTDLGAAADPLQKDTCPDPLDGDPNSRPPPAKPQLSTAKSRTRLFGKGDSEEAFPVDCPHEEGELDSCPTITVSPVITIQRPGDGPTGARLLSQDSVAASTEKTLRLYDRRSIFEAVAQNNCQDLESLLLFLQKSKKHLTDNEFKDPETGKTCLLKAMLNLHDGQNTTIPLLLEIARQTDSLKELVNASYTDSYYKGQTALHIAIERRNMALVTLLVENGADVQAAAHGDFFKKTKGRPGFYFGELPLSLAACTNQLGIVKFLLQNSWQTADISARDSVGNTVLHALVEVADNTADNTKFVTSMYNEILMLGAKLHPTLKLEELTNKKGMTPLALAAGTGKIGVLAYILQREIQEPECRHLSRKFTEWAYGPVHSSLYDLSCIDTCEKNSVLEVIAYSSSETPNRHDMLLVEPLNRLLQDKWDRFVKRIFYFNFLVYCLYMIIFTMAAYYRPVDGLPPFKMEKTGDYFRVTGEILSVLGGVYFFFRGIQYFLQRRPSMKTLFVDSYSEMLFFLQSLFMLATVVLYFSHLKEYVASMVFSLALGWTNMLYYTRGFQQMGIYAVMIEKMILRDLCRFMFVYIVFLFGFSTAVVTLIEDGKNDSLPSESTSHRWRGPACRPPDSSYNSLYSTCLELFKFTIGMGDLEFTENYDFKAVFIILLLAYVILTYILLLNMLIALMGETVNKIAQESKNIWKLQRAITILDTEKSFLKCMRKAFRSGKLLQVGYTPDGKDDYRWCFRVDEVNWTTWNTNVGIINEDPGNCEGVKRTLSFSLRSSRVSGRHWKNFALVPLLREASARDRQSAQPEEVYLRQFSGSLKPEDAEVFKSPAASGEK
T1 sequence (O75762 whole entry): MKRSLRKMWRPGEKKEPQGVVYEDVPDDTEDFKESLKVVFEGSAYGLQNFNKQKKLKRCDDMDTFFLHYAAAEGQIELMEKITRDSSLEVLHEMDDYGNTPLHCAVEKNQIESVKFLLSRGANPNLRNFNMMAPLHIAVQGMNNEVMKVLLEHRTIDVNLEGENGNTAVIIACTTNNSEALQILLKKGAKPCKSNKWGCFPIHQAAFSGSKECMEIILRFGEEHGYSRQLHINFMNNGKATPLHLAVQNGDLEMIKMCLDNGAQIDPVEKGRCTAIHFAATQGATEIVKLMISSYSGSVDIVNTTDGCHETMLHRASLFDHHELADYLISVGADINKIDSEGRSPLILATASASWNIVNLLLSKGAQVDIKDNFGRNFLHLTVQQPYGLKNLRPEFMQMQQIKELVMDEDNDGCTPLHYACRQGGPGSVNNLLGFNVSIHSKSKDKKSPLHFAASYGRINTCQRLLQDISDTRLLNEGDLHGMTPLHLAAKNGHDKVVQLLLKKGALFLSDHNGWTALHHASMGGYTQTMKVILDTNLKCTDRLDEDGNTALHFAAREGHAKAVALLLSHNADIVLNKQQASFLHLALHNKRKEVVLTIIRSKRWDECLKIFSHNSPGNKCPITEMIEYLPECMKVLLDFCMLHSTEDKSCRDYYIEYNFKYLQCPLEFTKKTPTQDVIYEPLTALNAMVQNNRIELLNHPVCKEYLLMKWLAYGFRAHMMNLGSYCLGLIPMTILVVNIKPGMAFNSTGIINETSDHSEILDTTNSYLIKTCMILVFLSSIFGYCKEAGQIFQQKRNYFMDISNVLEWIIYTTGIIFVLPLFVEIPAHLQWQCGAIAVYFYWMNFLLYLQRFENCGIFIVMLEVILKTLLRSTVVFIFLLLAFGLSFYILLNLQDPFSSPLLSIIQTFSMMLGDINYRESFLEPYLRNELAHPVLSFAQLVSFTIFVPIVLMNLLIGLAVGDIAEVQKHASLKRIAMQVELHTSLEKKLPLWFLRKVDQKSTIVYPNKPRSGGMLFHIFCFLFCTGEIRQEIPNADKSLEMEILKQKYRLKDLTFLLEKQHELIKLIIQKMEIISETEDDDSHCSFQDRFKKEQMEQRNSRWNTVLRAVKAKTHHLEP
T2 sequence (Q7Z2W7 whole entry): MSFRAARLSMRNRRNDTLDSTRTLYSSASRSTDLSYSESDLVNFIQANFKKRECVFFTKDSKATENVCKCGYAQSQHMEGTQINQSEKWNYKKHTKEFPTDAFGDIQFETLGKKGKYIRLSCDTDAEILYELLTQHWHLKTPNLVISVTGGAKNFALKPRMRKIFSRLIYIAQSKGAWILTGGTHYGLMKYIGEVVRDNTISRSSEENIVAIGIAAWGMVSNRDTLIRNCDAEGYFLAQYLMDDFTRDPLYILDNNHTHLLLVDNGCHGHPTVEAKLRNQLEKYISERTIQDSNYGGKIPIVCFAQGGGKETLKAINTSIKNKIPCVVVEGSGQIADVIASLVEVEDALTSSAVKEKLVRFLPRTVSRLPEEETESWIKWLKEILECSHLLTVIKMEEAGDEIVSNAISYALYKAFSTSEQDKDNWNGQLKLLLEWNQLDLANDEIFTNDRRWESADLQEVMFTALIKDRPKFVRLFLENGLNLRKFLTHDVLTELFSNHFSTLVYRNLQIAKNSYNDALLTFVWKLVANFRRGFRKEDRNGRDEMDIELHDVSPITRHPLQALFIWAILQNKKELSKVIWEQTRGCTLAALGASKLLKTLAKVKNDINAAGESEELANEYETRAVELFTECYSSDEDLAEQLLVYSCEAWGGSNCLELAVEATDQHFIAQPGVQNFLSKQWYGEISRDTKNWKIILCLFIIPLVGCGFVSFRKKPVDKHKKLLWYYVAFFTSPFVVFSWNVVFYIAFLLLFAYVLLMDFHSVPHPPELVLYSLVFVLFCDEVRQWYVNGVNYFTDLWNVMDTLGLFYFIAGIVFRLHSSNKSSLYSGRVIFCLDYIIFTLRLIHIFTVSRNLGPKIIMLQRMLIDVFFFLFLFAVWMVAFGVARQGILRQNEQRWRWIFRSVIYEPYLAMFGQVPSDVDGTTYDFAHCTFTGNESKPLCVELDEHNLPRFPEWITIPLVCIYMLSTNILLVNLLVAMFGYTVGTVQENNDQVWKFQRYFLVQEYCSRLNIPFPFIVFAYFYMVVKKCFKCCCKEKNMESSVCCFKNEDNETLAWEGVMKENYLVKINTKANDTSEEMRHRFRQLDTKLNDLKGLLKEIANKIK

AUC(0-t) ([1]; rat, in vivo, po, 1 g/kg) [ng·h/mL] | Cmax ([1]; rat, in vivo, po, 1 g/kg) [ng/mL] | Tmax ([1]; rat, in vivo, po, 1 g/kg) [min] | half-life ([1]; rat, in vivo, po, 1 g/kg) [min] | activation at 10 µM (human TRPA1) [%] | activation at 10 µM (human TRPM8) [%] | activation at 10 µM (human TRPV1) [%] | activation at 10 µM (human TRPV4) [%] | Plasma levels in humans [2] | Activation of TRPA1 (in words) (human TRPA1; TRP stable expression cell lines) | EC50 (human TRPA1; dose–response test, Ca2+ influx, read-out: EC50 against TRPA1) [nM] | SMILES | Pharmacological action related to improvement of blood and the circulatory system (blood viscosity) | Absolute bioavailability [3] [%] | Pharmacological action related to improvement of blood and the circulatory system ([4]; ref 11) | Pharmacological action related to improvement of blood and the circulatory system ([4]; ref 8) | Pharmacological action related to improvement of blood and the circulatory system ([4]; ref 13) | Pharmacological action related to improvement of blood and the circulatory system [5] | Tmax ([1]; rat plasma, oral shimotsuto 1 g/kg, from mean concentration (n = 3) per time point) [min] | Cumulative biliary excretion ([6]; after oral administration of paeoniflorin, within 24 h) | Bioavailability ([6]; in rats)
24.2 | 6.34 | 30 | 163 | 1 | 1 | 0 | -1 | – | – | – | CC12CC(O)C3CC1(OC1OC(CO)C(O)C(O)C1O)C3(COC(=O)c1ccccc1)C(=O)O2 (stereo not shown) [Albiflorin] | Reduction of blood viscosity via antithrombotic effect in rat model [12] | – | – | – | – | – | – | – | –
2030 | 1360 | 60 | 38.6 | 2 | 3 | 0 | 0 | quite low | – | – | OC[C@H]1O[C@@H](O[C@@H]2OC=C[C@H]3[C@H](O)[C@@H]4O[C@]4(CO)[C@@H]23)[C@H](O)[C@@H](O)[C@@H]1O [Catalpol] | – | 66.7 | Protective effect on vascular endothelial function via multiple actions such as induction of serum nitric oxide [11] | – | – | – | – | – | –
0.916 | 2.83 | 30 | – | 87 | 18 | 0 | -1 | – | potently activated | 1300 | CCC/C=C1\OC(=O)C2=C1CCC=C2 [Ligustilide] | – | – | – | vasorelaxation | vasorelaxation and increased blood flow effects | Activation of transient receptor potential ankyrin 1 (TRPA1; which plays a role in vasodilation) | – | – | –

SMILES | AUC(0-t) ([1]; rat, in vivo, po, 1 g/kg) [ng·h/mL] | Cmax ([1]; rat, in vivo, po, 1 g/kg) [ng/mL] | Tmax ([1]; rat, in vivo, po, 1 g/kg) [min] | half-life ([1]; rat, in vivo, po, 1 g/kg) [min] | activation at 10 µM (human TRPA1) [%] | activation at 10 µM (human TRPM8) [%] | activation at 10 µM (human TRPV1) [%] | activation at 10 µM (human TRPV4) [%] | Plasma levels in humans [2] | Activation of TRPA1 (in words) (human TRPA1; TRP stable expression cell lines) | EC50 (human TRPA1; dose–response test, Ca2+ influx, read-out: EC50 against TRPA1) [nM] | Pharmacological action related to improvement of blood and the circulatory system (blood viscosity) | Absolute bioavailability [3] [%] | Pharmacological action related to improvement of blood and the circulatory system ([4]; ref 11) | Pharmacological action related to improvement of blood and the circulatory system ([4]; ref 8) | Pharmacological action related to improvement of blood and the circulatory system ([4]; ref 13) | Pharmacological action related to improvement of blood and the circulatory system [5] | Tmax ([1]; rat plasma, oral shimotsuto 1 g/kg, from mean concentration (n = 3) per time point) [min] | Cumulative biliary excretion ([6]; after oral administration of paeoniflorin, within 24 h) | Bioavailability ([6]; in rats)
C[C@@]12C[C@@]3(O)O[C@@H](O1)[C@]1(COC(=O)c4ccccc4)[C@H]3C[C@@]12O[C@@H]1O[C@H](CO)[C@@H](O)[C@H](O)[C@H]1O [Paeoniflorin] | 83.6 | 36.3 | – | 88.8 | 1 | 0 | -1 | 0 | – | – | – | Reduction of blood viscosity via antithrombotic effect in rat model [12] | – | – | – | – | – | 30 | 1.3 % of the dose | low
